One data set addresses Cholinesterase (Equus caballus, UniProt P81908). Briefly: Inhibition of equine serum BChE using butyrylthiocholine iodide as substrate preincubated for 10 mins followed by substrate addition by Ellman's method. (In general: DTNB colorimetry detects thiols as they appear.)
Data set [1] deals with Glutamate [NMDA] receptor. Briefly: Displacement of [3H]-MK-801 from NMDA receptor (unknown origin) by scintillation counting method. It counts as protein-complex assay, Homo sapiens.
For data set [2], the target named is Glutamate [NMDA] receptor. Briefly: Displacement of [3H]-ifenprodil from NMDA receptor (unknown origin) by scintillation counting method. The data set is classed as protein-complex assay, Homo sapiens. Background: In a radioligand displacement assay an active substance lowers the binding of a labelled ligand.
Data set [3] concerns the target T1, Beta-secretase 1 (Homo sapiens, UniProt P56817). Briefly: Inhibition of BACE-1 (unknown origin).
Data set [4] has as its target T2, Acetylcholinesterase (Homo sapiens, UniProt P22303). Briefly: Inhibition of AChE (unknown origin).
In data set [5] the target is Glutamate [NMDA] receptor. Briefly: Inhibition of NMDA receptor (unknown origin). It counts as protein-complex assay, Homo sapiens.
Data set [6] addresses Amyloid-beta precursor protein (Homo sapiens) (UniProt P05067). Briefly: Inhibition of beta amyloid (unknown origin) self-induced aggregation relative to control. Particulars: concentration not given here.
For data set [7] the target is unchanged. Briefly: Inhibition of beta amyloid (unknown origin) self-induced aggregation at 10 uM relative to control.
In data set [8] the target is T3, Amine oxidase [flavin-containing] B (Homo sapiens, UniProt P27338).
T3 sequence (P27338 whole entry): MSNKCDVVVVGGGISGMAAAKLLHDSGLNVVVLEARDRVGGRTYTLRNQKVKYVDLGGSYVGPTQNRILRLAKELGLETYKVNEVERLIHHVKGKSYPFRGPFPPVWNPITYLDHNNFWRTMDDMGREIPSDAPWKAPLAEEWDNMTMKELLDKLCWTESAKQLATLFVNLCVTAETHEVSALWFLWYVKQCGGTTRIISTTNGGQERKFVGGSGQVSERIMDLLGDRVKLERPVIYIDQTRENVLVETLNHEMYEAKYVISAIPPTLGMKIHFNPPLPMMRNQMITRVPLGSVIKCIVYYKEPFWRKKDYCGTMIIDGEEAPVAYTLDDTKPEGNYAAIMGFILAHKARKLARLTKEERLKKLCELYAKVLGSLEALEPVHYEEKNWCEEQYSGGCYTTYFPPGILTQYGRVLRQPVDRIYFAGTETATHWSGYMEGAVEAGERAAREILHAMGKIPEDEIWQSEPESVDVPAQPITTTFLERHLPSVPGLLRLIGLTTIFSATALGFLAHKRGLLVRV
Briefly: Irreversible inhibition of MAOB (unknown origin).

For data set [9], the target named is T2, Acetylcholinesterase. Briefly: Irreversible inhibition of AChE (unknown origin).
Data set [10] deals with T4, Amine oxidase [flavin-containing] A (Homo sapiens, UniProt P21397).
T4 sequence (P21397 whole entry): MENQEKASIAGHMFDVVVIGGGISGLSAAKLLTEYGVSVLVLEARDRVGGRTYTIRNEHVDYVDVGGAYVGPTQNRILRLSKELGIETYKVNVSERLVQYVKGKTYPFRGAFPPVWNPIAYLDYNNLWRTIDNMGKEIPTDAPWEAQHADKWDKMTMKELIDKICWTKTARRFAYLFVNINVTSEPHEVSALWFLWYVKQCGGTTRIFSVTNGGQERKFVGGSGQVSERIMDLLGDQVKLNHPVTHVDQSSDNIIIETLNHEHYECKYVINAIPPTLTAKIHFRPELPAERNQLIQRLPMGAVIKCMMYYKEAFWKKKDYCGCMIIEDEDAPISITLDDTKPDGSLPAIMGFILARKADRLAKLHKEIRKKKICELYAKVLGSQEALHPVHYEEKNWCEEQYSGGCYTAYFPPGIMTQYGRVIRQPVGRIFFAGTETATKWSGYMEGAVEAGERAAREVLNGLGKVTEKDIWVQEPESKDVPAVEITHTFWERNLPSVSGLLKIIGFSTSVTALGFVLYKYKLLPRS
Briefly: Mixed type inhibition of MAOA (unknown origin).

Data set [11] has as its target T4, Amine oxidase [flavin-containing] A. Briefly: Irreversible inhibition of MAOA (unknown origin).
The target in data set [12] is T1, Beta-secretase 1. Briefly: Irreversible inhibition of BACE-1 (unknown origin).
Data set [13] addresses T3, Amine oxidase [flavin-containing] B. Briefly: Mixed type inhibition of MAOB (unknown origin).
Another data set concerns CHO-K1. Briefly: Cytotoxicity against CHOK1 cells assessed as reduction in cell viability by MTT assay. The data set is classed as cell-based. Particulars: Cricetulus griseus. (Tetrazolium assays rely on reduction of a dye to a coloured formazan, in cell work by metabolically active cells.)
The target of data set [14] is T1, Beta-secretase 1. Briefly: Inhibition of recombinant human BACE-1.
The subject of a further data set is HepG2. Briefly: Cytotoxicity against human HepG2 cells assessed as reduction in cell viability by MTT assay. The data set is classed as cell-based.
Data set [15] addresses T2, Acetylcholinesterase. Briefly: Inhibition of recombinant human AChE.
The target in data set [16] is T5, Acetylcholinesterase (Electrophorus electricus, UniProt O42275). Briefly: Inhibition of electric eel AChE using acetylthiocholine chloride as substrate preincubated for 15 mins followed by substrate addition.
For data set [17], the target named is T6, Acetylcholinesterase (Rattus norvegicus, UniProt P37136).
T6 sequence (P37136 whole entry): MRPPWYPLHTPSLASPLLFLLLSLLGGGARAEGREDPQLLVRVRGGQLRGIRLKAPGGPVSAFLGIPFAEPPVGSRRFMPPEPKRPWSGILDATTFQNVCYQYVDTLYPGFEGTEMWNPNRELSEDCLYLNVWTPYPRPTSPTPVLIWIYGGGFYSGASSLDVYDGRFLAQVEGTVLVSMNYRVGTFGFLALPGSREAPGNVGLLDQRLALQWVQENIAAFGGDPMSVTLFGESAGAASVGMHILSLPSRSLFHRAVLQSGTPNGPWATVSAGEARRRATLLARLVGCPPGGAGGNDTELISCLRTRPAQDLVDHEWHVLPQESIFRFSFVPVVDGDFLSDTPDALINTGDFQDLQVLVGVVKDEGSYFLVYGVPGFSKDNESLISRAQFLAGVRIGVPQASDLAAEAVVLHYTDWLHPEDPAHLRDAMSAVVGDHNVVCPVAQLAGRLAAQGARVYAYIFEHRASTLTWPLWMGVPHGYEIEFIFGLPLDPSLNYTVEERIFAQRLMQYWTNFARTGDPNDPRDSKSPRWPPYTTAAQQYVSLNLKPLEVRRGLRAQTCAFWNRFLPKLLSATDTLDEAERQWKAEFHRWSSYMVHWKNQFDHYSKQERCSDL
Briefly: Inhibition of AChE from rat cortex by Ellman's method.

The target in data set [18] is T2, Acetylcholinesterase. Briefly: Inhibition of recombinant human AChE using acetylthiocholine as substrate by UV-visible absorption method.
For data set [19], the target named is T1, Beta-secretase 1. Briefly: Inhibition of BACE-1 (unknown origin) after 60 mins by FRET assay.
Data set [20] concerns the target T5, Acetylcholinesterase. Briefly: Inhibition of electric eel AChE using acetylthiocholine as substrate measured for 3.2 mins by Ellman's method.
In another data set the target is Butyrylcholinesterase (Rattus norvegicus, UniProt Q9JKC1). Briefly: Inhibition of BuChE from rat serum by Ellman's method.
Data set [21] deals with Cone cGMP-specific 3',5'-cyclic phosphodiesterase subunit alpha' (Homo sapiens, UniProt P51160). Briefly: Inhibition of PDE6C (unknown origin) by immobilized metal ion affinity-based fluorescence polarization.
The nature of data set [22]: Inhibition of PDE4D3 (unknown origin) by immobilized metal ion affinity-based fluorescence polarization. Also noted: species or system Homo sapiens.
Data set [23] addresses cGMP-specific 3',5'-cyclic phosphodiesterase (Homo sapiens, UniProt O76074). Briefly: Inhibition of PDE5A1 (unknown origin) by immobilized metal ion affinity-based fluorescence polarization.
For data set [24], the target named is cGMP-dependent 3',5'-cyclic phosphodiesterase (Homo sapiens, UniProt O00408). Briefly: Inhibition of PDE2A1 (unknown origin) by immobilized metal ion affinity-based fluorescence polarization.
Data set [25] concerns the target High affinity cGMP-specific 3',5'-cyclic phosphodiesterase 9A (Homo sapiens, UniProt O76083). Briefly: Inhibition of PDE9A2 (unknown origin) by immobilized metal ion affinity-based fluorescence polarization.
In data set [26] the target is High affinity 3',5'-cyclic-AMP phosphodiesterase 7A (Homo sapiens, UniProt Q13946). Briefly: Inhibition of PDE7A (unknown origin) by immobilized metal ion affinity-based fluorescence polarization.
Data set [27] concerns the target cGMP-inhibited 3',5'-cyclic phosphodiesterase 3A (Homo sapiens, UniProt Q14432). Briefly: Inhibition of PDE3A (unknown origin) by immobilized metal ion affinity-based fluorescence polarization.
Data set [28] can be described thus: Oral bioavailability in Alzheimer's disease patient at 2 mg/ml. As to conditions: human, in vivo. The data set is classed as ADME, organism-based.
A short description of data set [29]: Half life in Alzheimer's disease patient at 2 mg/ml, po. The data set is classed as ADME. As to conditions: human, in vivo.
A short description of data set [30]: Drug excretion in Alzheimer's disease patient urine at 2 mg/ml, po. The data set is classed as ADME, tissue-based. Particulars: human, read-out: Drug excretion.

SMILES strings stand for the structures.

T2 sequence (P22303 whole entry): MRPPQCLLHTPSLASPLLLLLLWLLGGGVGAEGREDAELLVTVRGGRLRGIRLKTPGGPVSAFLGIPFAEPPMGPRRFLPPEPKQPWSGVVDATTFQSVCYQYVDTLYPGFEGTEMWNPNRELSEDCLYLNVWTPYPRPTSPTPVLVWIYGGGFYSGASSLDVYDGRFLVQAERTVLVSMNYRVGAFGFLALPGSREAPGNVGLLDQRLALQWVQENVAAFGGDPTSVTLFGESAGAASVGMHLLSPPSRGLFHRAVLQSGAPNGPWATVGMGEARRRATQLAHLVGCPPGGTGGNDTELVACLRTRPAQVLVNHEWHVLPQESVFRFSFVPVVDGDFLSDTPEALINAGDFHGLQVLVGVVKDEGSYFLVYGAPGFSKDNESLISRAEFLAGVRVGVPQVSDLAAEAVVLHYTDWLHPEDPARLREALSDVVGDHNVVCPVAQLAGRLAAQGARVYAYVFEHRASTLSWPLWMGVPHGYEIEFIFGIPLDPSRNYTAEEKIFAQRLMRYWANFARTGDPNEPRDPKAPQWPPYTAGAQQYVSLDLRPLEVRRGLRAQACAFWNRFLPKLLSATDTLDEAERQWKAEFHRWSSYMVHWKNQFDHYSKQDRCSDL
T1 sequence (P56817 whole entry): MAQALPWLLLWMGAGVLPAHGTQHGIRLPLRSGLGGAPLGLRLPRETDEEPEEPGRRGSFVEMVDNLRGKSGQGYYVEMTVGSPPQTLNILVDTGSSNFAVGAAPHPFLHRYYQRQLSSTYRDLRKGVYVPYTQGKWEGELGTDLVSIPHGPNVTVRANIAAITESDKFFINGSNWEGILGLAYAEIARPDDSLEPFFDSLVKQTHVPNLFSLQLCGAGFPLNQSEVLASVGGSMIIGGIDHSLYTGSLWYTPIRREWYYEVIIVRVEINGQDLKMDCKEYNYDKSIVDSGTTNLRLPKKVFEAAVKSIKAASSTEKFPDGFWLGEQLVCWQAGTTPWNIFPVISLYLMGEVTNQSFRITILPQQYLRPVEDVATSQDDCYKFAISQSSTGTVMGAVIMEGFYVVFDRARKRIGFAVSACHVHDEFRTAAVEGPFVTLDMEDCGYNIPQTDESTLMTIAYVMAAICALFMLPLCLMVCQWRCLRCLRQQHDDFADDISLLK
T5 sequence (O42275 whole entry): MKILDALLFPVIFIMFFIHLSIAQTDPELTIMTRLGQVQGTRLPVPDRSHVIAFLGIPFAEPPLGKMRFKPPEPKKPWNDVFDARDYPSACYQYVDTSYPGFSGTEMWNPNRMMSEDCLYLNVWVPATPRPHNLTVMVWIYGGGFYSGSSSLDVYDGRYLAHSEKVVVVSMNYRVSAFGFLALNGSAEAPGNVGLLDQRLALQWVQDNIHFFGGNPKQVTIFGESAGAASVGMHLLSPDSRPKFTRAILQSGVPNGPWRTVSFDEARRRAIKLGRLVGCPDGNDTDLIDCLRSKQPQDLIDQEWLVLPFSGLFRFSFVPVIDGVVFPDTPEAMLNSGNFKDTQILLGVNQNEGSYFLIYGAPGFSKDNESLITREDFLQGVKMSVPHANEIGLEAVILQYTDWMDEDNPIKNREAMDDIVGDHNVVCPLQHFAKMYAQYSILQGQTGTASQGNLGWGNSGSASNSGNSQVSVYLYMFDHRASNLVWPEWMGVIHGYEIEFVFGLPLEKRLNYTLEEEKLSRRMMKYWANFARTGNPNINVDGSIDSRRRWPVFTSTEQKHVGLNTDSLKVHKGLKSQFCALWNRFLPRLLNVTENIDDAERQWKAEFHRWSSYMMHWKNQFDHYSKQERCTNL
Sequence of Amyloid-beta precursor protein (Homo sapiens) (P05067 whole entry): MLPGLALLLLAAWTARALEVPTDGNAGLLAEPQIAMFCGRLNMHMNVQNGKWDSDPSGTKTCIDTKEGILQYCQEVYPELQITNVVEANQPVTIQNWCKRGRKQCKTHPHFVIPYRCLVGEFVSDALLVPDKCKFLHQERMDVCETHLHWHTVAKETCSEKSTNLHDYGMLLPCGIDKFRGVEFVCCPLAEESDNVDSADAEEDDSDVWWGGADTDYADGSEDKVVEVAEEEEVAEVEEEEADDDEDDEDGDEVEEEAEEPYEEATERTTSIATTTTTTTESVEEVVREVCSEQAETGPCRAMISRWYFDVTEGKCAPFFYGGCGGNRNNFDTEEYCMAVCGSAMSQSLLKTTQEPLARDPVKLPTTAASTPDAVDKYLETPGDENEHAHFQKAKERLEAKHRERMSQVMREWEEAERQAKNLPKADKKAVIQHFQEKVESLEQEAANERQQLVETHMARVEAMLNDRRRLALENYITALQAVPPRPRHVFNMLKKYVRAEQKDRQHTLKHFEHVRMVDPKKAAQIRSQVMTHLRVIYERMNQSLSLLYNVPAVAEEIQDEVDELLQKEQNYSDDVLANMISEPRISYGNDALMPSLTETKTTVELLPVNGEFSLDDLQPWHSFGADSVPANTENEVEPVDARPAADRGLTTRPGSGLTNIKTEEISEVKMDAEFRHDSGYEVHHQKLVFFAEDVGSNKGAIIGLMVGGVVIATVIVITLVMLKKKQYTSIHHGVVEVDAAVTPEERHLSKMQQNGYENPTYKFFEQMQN
Sequence of High affinity cGMP-specific 3',5'-cyclic phosphodiesterase 9A (O76083 whole entry): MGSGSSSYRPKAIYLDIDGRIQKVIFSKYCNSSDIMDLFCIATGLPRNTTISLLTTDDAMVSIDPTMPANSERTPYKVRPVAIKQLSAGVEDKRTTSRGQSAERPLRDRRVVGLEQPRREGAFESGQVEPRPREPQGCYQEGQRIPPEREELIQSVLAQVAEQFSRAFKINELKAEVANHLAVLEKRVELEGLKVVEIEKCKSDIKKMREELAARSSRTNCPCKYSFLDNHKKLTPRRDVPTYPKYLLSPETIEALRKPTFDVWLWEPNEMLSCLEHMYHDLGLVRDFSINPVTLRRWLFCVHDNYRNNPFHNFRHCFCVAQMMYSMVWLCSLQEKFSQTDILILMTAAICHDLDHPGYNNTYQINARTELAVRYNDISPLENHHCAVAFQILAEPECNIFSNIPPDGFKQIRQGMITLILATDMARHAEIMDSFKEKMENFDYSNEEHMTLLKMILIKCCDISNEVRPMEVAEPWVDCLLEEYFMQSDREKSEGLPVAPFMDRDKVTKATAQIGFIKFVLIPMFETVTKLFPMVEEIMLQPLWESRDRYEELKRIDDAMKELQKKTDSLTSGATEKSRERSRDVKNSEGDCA
Sequence of High affinity 3',5'-cyclic-AMP phosphodiesterase 7A (Q13946 whole entry): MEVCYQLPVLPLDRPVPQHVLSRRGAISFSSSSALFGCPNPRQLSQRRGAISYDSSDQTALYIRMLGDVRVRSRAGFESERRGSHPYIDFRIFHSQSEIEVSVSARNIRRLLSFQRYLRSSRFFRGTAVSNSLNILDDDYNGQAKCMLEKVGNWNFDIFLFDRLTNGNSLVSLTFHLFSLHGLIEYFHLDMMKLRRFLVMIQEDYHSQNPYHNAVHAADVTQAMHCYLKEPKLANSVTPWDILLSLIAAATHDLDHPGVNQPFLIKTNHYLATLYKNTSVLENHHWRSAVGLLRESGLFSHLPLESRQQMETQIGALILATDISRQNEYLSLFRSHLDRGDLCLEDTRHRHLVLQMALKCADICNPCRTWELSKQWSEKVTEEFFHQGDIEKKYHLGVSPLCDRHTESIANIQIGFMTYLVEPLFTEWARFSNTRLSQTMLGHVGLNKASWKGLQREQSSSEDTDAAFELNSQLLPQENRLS
Sequence of Cone cGMP-specific 3',5'-cyclic phosphodiesterase subunit alpha' (P51160 whole entry): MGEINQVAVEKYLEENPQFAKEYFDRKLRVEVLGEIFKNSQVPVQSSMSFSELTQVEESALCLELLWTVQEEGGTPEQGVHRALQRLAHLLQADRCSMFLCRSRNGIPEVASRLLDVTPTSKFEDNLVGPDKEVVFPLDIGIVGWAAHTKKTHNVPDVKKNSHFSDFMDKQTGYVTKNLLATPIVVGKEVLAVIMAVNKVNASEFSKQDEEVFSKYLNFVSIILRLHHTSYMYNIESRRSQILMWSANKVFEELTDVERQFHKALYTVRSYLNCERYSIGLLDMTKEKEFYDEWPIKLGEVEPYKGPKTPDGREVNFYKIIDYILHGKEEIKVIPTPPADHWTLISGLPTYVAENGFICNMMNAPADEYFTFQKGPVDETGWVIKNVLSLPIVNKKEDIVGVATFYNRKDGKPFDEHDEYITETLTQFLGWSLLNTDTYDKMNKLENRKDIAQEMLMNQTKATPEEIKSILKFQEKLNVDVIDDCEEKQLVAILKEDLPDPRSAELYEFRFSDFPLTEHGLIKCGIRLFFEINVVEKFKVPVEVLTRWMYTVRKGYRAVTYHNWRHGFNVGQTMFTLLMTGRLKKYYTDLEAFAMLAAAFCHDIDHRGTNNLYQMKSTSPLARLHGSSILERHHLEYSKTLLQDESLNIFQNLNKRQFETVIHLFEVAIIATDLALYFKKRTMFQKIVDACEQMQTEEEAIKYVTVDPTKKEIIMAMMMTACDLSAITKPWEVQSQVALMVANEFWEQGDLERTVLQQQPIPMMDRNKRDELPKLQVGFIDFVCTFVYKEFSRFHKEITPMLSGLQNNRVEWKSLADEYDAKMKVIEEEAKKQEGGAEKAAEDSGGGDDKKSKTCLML
Sequence of Butyrylcholinesterase (Q9JKC1 whole entry): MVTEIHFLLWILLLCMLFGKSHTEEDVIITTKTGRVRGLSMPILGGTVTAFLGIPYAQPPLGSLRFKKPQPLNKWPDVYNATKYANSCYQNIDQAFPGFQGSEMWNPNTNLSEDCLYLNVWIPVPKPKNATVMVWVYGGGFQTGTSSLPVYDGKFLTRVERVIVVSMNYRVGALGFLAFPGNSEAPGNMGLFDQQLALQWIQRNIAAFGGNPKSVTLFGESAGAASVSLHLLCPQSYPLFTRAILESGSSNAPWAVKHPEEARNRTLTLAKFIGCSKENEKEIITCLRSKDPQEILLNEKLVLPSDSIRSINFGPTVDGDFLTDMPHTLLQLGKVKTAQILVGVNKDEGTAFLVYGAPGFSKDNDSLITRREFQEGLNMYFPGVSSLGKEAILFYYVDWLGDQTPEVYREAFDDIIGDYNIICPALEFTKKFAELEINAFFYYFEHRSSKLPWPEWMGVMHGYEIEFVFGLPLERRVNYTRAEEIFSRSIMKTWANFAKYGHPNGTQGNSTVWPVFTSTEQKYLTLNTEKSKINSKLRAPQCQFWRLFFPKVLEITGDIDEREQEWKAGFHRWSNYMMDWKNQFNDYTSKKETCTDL

Consider `CCN1CCc2c(c3ccccc3n2CCC(=O)N2c3ccccc3Sc3ccccc32)C1`, for which the results for the IC50 (against Cholinesterase; in data set [1]; in data set [2]) were 0.52 µM, 14.6 µM and 13.4 µM, respectively.
Turning to `OC(CNCc1cccc(OCc2ccccc2)c1)Cn1cc(Br)c2cc(Br)ccc21` (stereo not given), the IC50 against Beta-secretase 1 [3] is 0.97 µM; at Acetylcholinesterase [4], 9.1 µM.
For the molecule `Cc1ccc2[nH]c3c(c2c1)CN(CCCCCN1CCc2[nH]c4ccc(C)cc4c2C1)CC3`, the results for the half-inhibitory concentration (IC50) (on Acetylcholinesterase [4]; in data set [5]) were 0.195 µM and 11 µM, respectively. The same molecule had an inhibition in data set [6] of 67%.
Molecule `COc1cc(/C=C/C(O)=C/C(=O)/C=C/c2ccc(OCc3ccccc3)cc2)ccc1O` gave an IC50 on Beta-secretase 1 [3] of 2.5 µM.
For the molecule `C#CCN(C)Cc1cc2cc(OCCCC3CCN(Cc4ccccc4)CC3)ccc2n1C`, in [7], the inhibition is 47.8%. On Acetylcholinesterase [4], this molecule displayed an IC50 of 0.35 µM.
As for `C#CCN(C)Cc1ccc(O)c2ncccc12`, the half-inhibitory concentration (IC50) in data set [8] worked out at 10.2 µM; on Acetylcholinesterase [9] it was 1.8 µM; in [10], 57 µM; in data set [11], 6.2 µM; against Beta-secretase 1 [12], 1.6 µM; in data set [13], 1.5 µM.
Take `COc1ccc2[nH]c3nc4c(c(N)c3c2c1)CCCC4`: the IC50 is 53.9 µM in data set [8]; 5.5 µM in the data set on CHO-K1; 2.4 µM on Beta-secretase 1 [14]; 0.49 µM in [11]; 1.22 µM in the data set on HepG2; 1.5 µM on Acetylcholinesterase [15].
As for `COc1ccc(/C=C2\COc3cc(OCCCN4CCCCC4)ccc3C2=O)cc1`, at Acetylcholinesterase [16], 3.94 µM corresponded to half-maximal inhibition (IC50).
`CN1CC(=O)N2[C@H](c3ccc4c(c3)OCO4)c3[nH]c4ccccc4c3C[C@@H]2C1=O` registered an IC50 at Acetylcholinesterase [17] of 26.2 µM.
Regarding `COc1ccc(CNC(=O)C2CCN(C(=O)c3ccccc3)CC2)cc1OC`, the IC50 stood at 0.00411 µM on Acetylcholinesterase [18] and 0.0183 µM against Beta-secretase 1 [19].
With `Cc1cc(=O)oc2cc(OCCN3CCN(CC(=O)Nc4c5c(nc6ccccc46)CCCC5)CC3)ccc12`, half-maximal inhibition against Acetylcholinesterase [20] (IC50) was put at 92 µM.
For `O=C1[C@H]2Cc3c([nH]c4ccccc34)[C@@H](c3ccc4c(c3)OCO4)N2C(=O)CN1CCC1CCN(Cc2ccccc2)CC1`, the IC50 is 3.88 µM on Butyrylcholinesterase; more than 100 µM in data set [21]; more than 100 µM in [22]; 1.53 µM in [23]; 0.032 µM against Acetylcholinesterase [17]; more than 100 µM in [24]. The IC50 in [25], in data set [26] and in data set [27] was more than 100 µM throughout.
`CC12CC3CC(C)(C1)CC(N)(C3)C2` [MEMANTINE] yielded a bioavailability in data set [28] of 100%. This molecule also displayed a half-life in [29] of 60 to 100 h. In addition, in data set [30], the dose excreted was determined as 48%.

What is called IC50 is the point on the concentration scale where inhibition reaches its midpoint. Broadly, the inhibition is the change of the read-out against control, counted positive when it falls. The low end stands for a weak effect, the high end for a strong effect. What is called bioavailability is dose-corrected exposure relative to a reference, in per cent. Read a low bioavailability as little systemic uptake. The term half-life denotes the time in which the quantity being followed falls by half. A higher half-life goes with slow decline.
